Literature values in patent publication US20260272825A1, “LEVONORGESTREL AND COMPOSITIONS COMPRISING THE SAME” (CHEMO RESEARCH, S.L., priority 2023, published 2026).

Tested on: women

## C[C@]12CCC3=C4CCC(=O)C=C4CC[C@H]3[C@@H]1CC[C@@]2(O)CC#N [DNG, Dienogest]
2 mg daily
  Ovulation inhibition / ovarian activity, in words: provides ovulation inhibition, but ovarian activity is not completely suppressed

## C#C[C@]1(OC(C)=O)CC[C@H]2[C@@H]3CCC4=CC(=O)CC[C@@H]4[C@H]3CC[C@@]21C [NETA, norethisterone acetate]
Given continuously over 28 days
  Dosage providing ovulation inhibition: ≥ 0.35 mg/daily

## C#C[C@]1(O)CC[C@H]2[C@@H]3CCC4=CCCC[C@@H]4[C@H]3C(=C)C[C@@]21CC [desogestrel]
POP containing desogestrel 0.075 mg
  Cycles with ovulation inhibited: at least 98%
